Measurements published in EP0801570B1, “FORMULATIONS AND METHODS FOR REDUCING SKIN IRRITATION” (COSMEDERM TECHNOLOGIES, priority 1994, dated 1996).
Where two headings read alike, the source gives them in different places.

What was measured:
[1] = test system: lactic acid skin irritation; assay: Lactic acid irritation trial, time zero test (anti-irritant applied simultaneously with the irritant); format: in vivo, humans; settings: time zero tests; for inhibition at 250000 µM: Homo sapiens
Description: (§1) The following scaled scores were used for sensory assessment: […]

[2] = test system: lactic acid skin irritation; assay: Lactic acid irritation trial, pretreatment test (anti-irritant applied 15 minutes before the irritant); format: in vivo, humans; settings: for Percent Inhibition (average inhibition of cumulative irritation): cation salt at 250 mM, lactic acid irritant; for inhibit skin irritation: topical solutions in Elizabeth Arden Visible Difference Refining Toner, various amounts of salt
Description: as §1

[3] = test system: skin irritation; assay: Human clinical trials of anti-irritant activity against topical skin irritants; format: in vivo, humans; settings: for anti-irritant activity: clinical trials
Method: The objective of the clinical trials was to determine whether and to what extent topical formulations of the calcium cation reduced or prevented skin irritation caused by certain severe skin irritants, including particularly lactic acid and glycolic acid (which are hydroxy acids), capryloyl salicylic acid (a β-hydroxy acid ester) and capsaicin (an isolate from cayenne and paprika known for its skin-irritating properties). The trials were conducted in a double blind, randomized, vehicle-controlled manner. Various formulations of the invention were tested in over 460 people.
(§2) Tests were conducted in multiple panels of from 7 to 12 subjects each. Subjects were instructed not to wear any makeup or facial lotions to the clinic the day of testing. The subjects were instructed to wash their face with Ivory bar soap in the clinic prior to application of test solutions.

[4] = test system: lactic acid skin irritation
Method: The majority of the trials were conducted using lactic acid as the skin irritant, and proceeded generally as follows.
as §2
Lactic acid skin-irritant compositions were formulated in an appropriate vehicle prior to application to the skin of the subjects.
Controls were performed by applying corresponding formulation(s) (pretreatment and/or skin-irritant composition) with an equimolar amount of sodium chloride to a contralateral portion of the subject's skin. Typically, the test materials were applied to the face of the subject.
All test solutions (including controls) were applied in a double blind, randomized fashion using the prepared solutions as previously placed in coded vial designated for use on either the right or left side of the face (or other test area). Solutions were typically applied using a cotton swab (six strokes) or sponge applicator to the face and cheek area extending from the midline of the nose over to the center of the cheek and from the cheek bone down to the jaw line. Application was made first to the right side and then to the left.
The following scaled scores were used for sensory assessment:
Symptom scores were cumulated, separately for the cation-treated and control-treated areas, for each individual and also for the panel as a whole.

[5] = cation salt at 250 mM, lactic acid irritant
[6] = representative panels, cation concentration 250 mM, vehicle 10% EtOH
[7] = pretreatment tests, representative panels, cation concentration 250 mM, vehicle VIS DIFFERENCE

Structure (SMILES) | Percent Inhibition (average inhibition of cumulative irritation) [1, 5] [%] | Percent Inhibition [1, 6] [%] | Percent Inhibition (average inhibition of cumulative irritation) ([2]; pretreatment tests) [%] | Percent Inhibition [2, 7] [%] | inhibit skin irritation [2] | anti-irritant activity [3] | inhibition at 250000 µM ([1]; cation salt at 250 mM, lactic acid irritant, read-out: Percent Inhibition (average inhibition of cumulative irritation)) [%] | inhibition at 250000 µM ([1]; representative panels, cation concentration 250 mM, vehicle 10% EtOH, read-out: Percent Inhibition) [%] | inhibition at 250000 µM ([2]; Homo sapiens, pretreatment tests, representative panels, cation concentration 250 mM, vehicle VIS DIFFERENCE, read-out: Percent Inhibition) [%] | Percent Inhibition (cumulative irritation inhibition) ([4]; concentration 31 mM) [%] | Percent Inhibition (cumulative irritation inhibition) ([4]; concentration 62 mM) [%] | Percent Inhibition (cumulative irritation inhibition) ([4]; concentration 125 mM) [%] | Percent Inhibition (cumulative irritation inhibition) ([4]; concentration 250 mM) [%] | Percent Inhibition (cumulative irritation inhibition) ([4]; concentration 500 mM) [%] | suppress stinging, burning, tingling, itching and/or erythema ([3]; applied topically to the skin, irritants lactic acid, glycolic acid, capryloyl salicylic acid and benzoyl peroxide)
CC(=O)[O-].CC(=O)[O-].[Ca+2] [Calcium acetate] | 60 | 65 | 40 | 30 | effective to inhibit skin irritation | particularly active as anti-irritants |  |  |  |  |  |  |  |  | 
[Ca+2].[Cl-].[Cl-] [Calcium chloride] | 65 | 61 | 35 | 35 | effective to inhibit skin irritation | particularly active as anti-irritants |  |  |  |  |  |  |  |  | 
O=C(O)[C@H](O)[C@@H](O)[C@H](O)[C@H](O)CO [Calcium gluconate] |  |  |  |  |  | particularly active as anti-irritants | 40 | 49 | 40 |  |  |  |  |  | 
O=[N+]([O-])[O-].O=[N+]([O-])[O-].[Ca+2] [Calcium nitrate] | 90 | 85 | 45 | 44 | effective to inhibit skin irritation | particularly active as anti-irritants |  |  |  | 26 | 52 | 83 | 82 | 67 | 
[Ca+2] [calcium(II) (Ca^2+)] |  |  |  |  |  | significant and reproducible anti-irritant effects |  |  |  |  |  |  |  |  | effective
